The values below come from patent US10214492B2, “Heterocyclic inhibitors of MCT4” (Vettore, LLC, priority 2016, dated 2019).

A short description of series [1]: Pharmacokinetic assay in rat (IV 3 mg/kg, PO 10 mg/kg). Format: in vivo. The conditions noted are these: Male Sprague-Dawley rat; for Rat F: oral bioavailability; for Rat F / half-life: PO 10 mg/kg; for half-life / Vd: plasma; for half-life: read-out: Rat t1/2 (converted); for Vd: volume of distribution, read-out: Rat Vss.
Series [2] is described as follows: Adjuvant-induced arthritis model in rat: Mechanical Allodynia test (MA, Von Frey). Format: in vivo. The conditions noted are these: SD rat, CFA-induced arthritis; PO 3 days post CFA; compared to Dexamethasone.
The nature of series [3]: Metabolic stability in rat liver microsomes (in vitro t1/2). It counts as in vitro ADME. The following applies: for half-life at 2 µM: read-out: Rat microsome t1/2, min; for Rat microsome % 60 min: rat liver microsomes. In short, it runs like this:
(§1)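 Liver microsomes (0.5 mg/mL final) incubated with test compound at 2 μM final plus NADPH; samples taken at 0, 15, 30, 45 and 60 min. Parent remaining quantified by LC-MS/MS; k from ln(% remaining) vs time regression, in vitro t1/2 = −0.693/k.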
A general note: Microsomes from liver hold many membrane-bound enzymes, among them those of drug oxidation.

The next series deals with MCT4 (Homo sapiens (Human), UniProt O15427). As to the kind of experiment: Assay 3: MCT4-mediated lactate transport in MDA-MB-231 breast cancer cells. Format: cell-based. The following applies: MDA-MB-231 cells; lactate transport. The method in brief:
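MDA-MB-231 cells loaded with BCECF-AM, 5 min at 37° C, washed and resuspended in Tyrode's Solution, pH 7.4. MCT4 lactate/proton symport followed as the intracellular pH change reported by BCECF fluorescence.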

A short description of series [4]: Pharmacokinetic assay in mouse (IV 3 mg/kg, PO 10 mg/kg). Format: in vivo. The conditions noted are these: Male CD1 mouse; for Mouse F: oral bioavailability; for Mouse F / half-life: PO 10 mg/kg; for half-life / Vd: plasma; for half-life: read-out: Mouse t1/2 (converted); for Vd: volume of distribution, read-out: Mouse Vss. From the text:
The following are assays that may be used to evaluate the pharmacokinetic properties of Formula (I) in mouse or rat. The assays follow a common procedure recited below.
1. […] For PO (oral gavage), DMSO/PEG400 (10:90). Formulations freshly prepared on the day of dosing or prior to dosing. Storage at room temperature.
2. Test Species: For Mouse: Male CD1 strain, approximately 6-8 weeks in age, approximately 20-30 g. For Rat: Male Sprague-Dawley strain, approximately 6-8 weeks in age, approximately 200-300 g.
3. Dose Level: For IV, 3 mg/kg. For PO, 10 mg/kg.
4. Number of animals: 3 per assay.
5. PK time points: For IV (plasma): 5 min, 15 min, 1, 2, 4, 6, 8, 24 h post dose. For PO (plasma): 15 min, 30 min, 1, 2, 4, 6, 8, 24 h post dose.
6. Blood Sample Collection and Processing. Blood was collected (˜0.2 mL per time point) from jugular vein. Blood of each sample was transferred into plastic micro centrifuge tubes containing anticoagulant of EDTA-K2. Blood samples were centrifuged at 2,000 g for 5 minutes at 4° C. to obtain plasma.
7. Samples Analysis: Plasma samples were analyzed using LC/MS/MS method, and pharmacokinetic parameters (half-life: t1/2; oral bioavailability: F; volume of distribution: Vss).

A further series addresses MCT1 (Homo sapiens (Human), UniProt P53985). As to the kind of experiment: Assay 4: MCT1-mediated lactate transport in BT20 breast cancer cells. Format: cell-based. The conditions noted are these: Table 27. The method in brief: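 BT20 cells loaded with BCECF-AM (30 mM DMSO stock) for 5 min at 37° C, washed and resuspended in Tyrode's Solution pH 7.4. Lactate uptake tracked via BCECF intracellular pH signal after adding 10 mM L-lactate.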

The nature of series [5]: Metabolic stability in mouse liver microsomes (in vitro t1/2). It counts as in vitro ADME. The conditions noted are these: for half-life at 2 µM / Mouse microsome t1/2, min: mouse liver microsomes 0.5 mg/mL, 2 μM compound; for half-life at 2 µM: read-out: Mouse microsome t1/2, min; for Mouse microsome % 60 min: mouse liver microsomes. The method in brief:
as §1

The nature of series [6]: Metabolic stability in human liver microsomes (in vitro t1/2). Format: in vitro ADME. The conditions noted are these: for half-life at 2 µM: read-out: Human microsome t1/2, min; for Human microsome % 60 min: human liver microsomes. The method in brief:
as §1

The nature of series [7]: Adjuvant-induced arthritis model in rat: Difference of Weight Bearing test (DWB). The following applies: SD rat, CFA-induced arthritis; PO 3 days post CFA; compared to Dexamethasone. It counts as in vivo.
Setting [8] is: rat liver microsomes 0.5 mg/mL, 2 μM compound.
The mark [9] stands for this setting: human liver microsomes 0.5 mg/mL, 2 μM compound.

MCT4, sequence (O15427 whole entry, looked up): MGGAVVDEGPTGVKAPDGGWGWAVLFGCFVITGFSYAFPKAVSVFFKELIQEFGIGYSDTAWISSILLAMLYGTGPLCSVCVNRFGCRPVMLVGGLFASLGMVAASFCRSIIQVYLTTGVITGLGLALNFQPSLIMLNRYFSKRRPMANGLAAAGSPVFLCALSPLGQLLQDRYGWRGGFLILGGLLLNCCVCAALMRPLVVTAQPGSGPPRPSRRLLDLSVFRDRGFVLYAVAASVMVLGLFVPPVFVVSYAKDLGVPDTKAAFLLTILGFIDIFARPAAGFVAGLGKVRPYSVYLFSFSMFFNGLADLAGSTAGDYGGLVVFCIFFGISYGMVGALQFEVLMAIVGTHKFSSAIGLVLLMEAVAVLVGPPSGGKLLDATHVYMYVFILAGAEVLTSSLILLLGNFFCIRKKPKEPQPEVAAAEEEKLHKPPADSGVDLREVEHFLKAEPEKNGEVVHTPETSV
MCT4, sequence (P35613 whole entry partner, looked up): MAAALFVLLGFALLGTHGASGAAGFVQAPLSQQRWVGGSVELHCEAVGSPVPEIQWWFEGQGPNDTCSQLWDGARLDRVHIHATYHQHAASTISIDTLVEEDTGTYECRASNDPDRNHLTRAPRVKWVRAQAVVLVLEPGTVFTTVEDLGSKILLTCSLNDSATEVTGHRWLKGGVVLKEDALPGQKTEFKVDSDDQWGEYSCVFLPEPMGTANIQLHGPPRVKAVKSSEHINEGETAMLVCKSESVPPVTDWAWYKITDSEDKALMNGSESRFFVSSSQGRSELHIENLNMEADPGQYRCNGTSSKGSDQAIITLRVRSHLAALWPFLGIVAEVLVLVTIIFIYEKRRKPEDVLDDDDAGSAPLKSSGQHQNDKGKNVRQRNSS
MCT1, sequence (P53985 whole entry): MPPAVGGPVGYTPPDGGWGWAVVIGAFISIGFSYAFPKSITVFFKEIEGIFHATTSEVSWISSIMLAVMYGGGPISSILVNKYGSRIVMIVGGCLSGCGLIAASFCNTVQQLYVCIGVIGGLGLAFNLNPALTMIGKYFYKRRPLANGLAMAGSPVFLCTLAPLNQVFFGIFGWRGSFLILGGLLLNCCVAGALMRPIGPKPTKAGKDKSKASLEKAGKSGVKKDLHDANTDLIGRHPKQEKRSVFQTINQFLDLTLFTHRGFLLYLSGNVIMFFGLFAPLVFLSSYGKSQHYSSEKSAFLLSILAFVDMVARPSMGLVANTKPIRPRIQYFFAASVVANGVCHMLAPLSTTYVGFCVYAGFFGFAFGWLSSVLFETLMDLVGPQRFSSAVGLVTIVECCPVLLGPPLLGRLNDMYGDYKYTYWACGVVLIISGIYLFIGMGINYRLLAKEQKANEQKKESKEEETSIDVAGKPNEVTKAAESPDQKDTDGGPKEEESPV
MCT1, sequence (P35613 140-385 partner): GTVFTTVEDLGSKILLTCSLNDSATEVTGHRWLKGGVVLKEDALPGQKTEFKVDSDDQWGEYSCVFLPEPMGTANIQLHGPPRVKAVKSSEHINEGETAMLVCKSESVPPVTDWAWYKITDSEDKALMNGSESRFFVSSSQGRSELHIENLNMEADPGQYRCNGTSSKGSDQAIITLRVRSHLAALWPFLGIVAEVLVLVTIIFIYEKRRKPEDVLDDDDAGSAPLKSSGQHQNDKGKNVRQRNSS

As to `CC(C)(OCc1cc(-c2cccc(OC3CC3)c2)n(-c2ccccc2Cl)n1)C(=O)O` [Example 110, 2-([1-(2-Chlorophenyl)-5-(3-cyclo-propoxyphenyl)-1H-pyrazol-3-yl)methoxy)-2-methylpropanoic acid], the “Rat F” value in series [1] amounted to 84%. Besides, the half-life is 4.7 h in series [1] and 26.7 h in [4]. Further, the figures for the Vd in series [1] and in [4] were 0.34 L/kg and 0.81 L/kg, respectively. Besides, the “Mechanical Allodynia (Von Frey), Minimal Efficacious Dose” value (shortened to “Mechanical Allodynia (Von Frey)”) in series [2] worked out at 10 mg/kg. Also, the half-life at 2 µM turned out to be 9.15 h in [3] (setting [8]), 3.72 h in series [5] and 39.6 h in [6] (setting [9]). In addition, in [3], the “Rat microsome % 60 min” value came to 94%. Further, the IC50 (in general, the point on the concentration scale where inhibition reaches its midpoint) was 20 nM against MCT4 and 30000 nM on MCT1. Also, the “Mouse F” value in [4] is on record as 100%. Also, the “Mouse microsome % 60 min” value in series [5] turned out to be 86%. Also, in series [6], the “Human microsome % 60 min” value was determined as 99%. In series [7], the “Difference in Weight Bearing, Minimal Efficacious Dose” value (from here on “Difference in Weight Bearing”) was 10 mg/kg.
Turning to `CCn1ncc2ccc(-c3cc(COC(C)(C)C(=O)O)nn3Cc3ccccc3Cl)cc21` [Example 150, 2-([1-[(2-Chlorophenyl)methyl]-5-(1-ethyl-1H-indazol-6-yl)-1H-pyrazol-3-yl]-methoxy)-2-methylpropanoic Acid], in series [1], the “Rat F” value is 43%, the half-life is 3.6 h and the Vd was found to be 1.2 L/kg. For the same compound, the “Mechanical Allodynia (Von Frey)” value in series [2] was determined as 10 mg/kg. Further, the half-life at 2 µM in series [3] (setting [8]) came out at 28.6 h. Moreover, in series [3], the “Rat microsome % 60 min” value is listed as 98%. On MCT4, this compound gave an IC50 of 2.8 nM. In addition, in [4], the “Mouse F” value stood at 89%, the half-life is 4.9 h and the Vd amounted to 9.9 L/kg. In addition, half-maximal inhibition at MCT1 (IC50) required 25000 nM. In series [5], the “Mouse microsome t1/2, min” value was “∞” and the “Mouse microsome % 60 min” value amounted to 103%. Further, the half-life at 2 µM in [6] (setting [9]) amounted to 5.68 h. In addition, the “Human microsome % 60 min” value in series [6] is 90%. Besides, the “Difference in Weight Bearing” value in [7] was found to be 10 mg/kg.
Consider `CC(C)COc1cccc(-c2cc(COC(C)(C)C(=O)O)nn2-c2cccc3cnn(C)c23)c1` [Example 170, 2-methyl-2-([1-(1-methyl-1H-indazol-7-yl)-5-[3-(2-methylpropoxy)phenyl]-1H-pyrazol-3-yl]methoxy]propanoic acid], for which, in series [1], the “Rat F” value is 18%, the half-life was 2.4 h and the Vd came out at 1.1 L/kg. Besides, in series [2], the “Mechanical Allodynia (Von Frey)” value worked out at 3 mg/kg. Further, in series [3] (setting [8]), the “Rat microsome t1/2, min” value was “∞”. The “Rat microsome % 60 min” value in series [3] is 95%. Besides, the 50% inhibitory concentration (IC50) against MCT4 was 2 nM. Further, in [4], the “Mouse F” value came out at 100%, the half-life was 2.6 h and the Vd amounted to 2 L/kg. Half-maximal inhibition at MCT1 (IC50) required 32000 nM. In series [5], the “Mouse microsome t1/2, min” value is on record as “∞” and the “Mouse microsome % 60 min” value was found to be 99%. The half-life at 2 µM in [6] (setting [9]) was determined as 7.85 h. For the same compound, in series [6], the “Human microsome % 60 min” value was 87%. The “Difference in Weight Bearing” value in [7] worked out at 3 mg/kg.
In the case of `CCn1ncc2ccc(-c3cc(CO[C@](C)(CC)C(=O)O)nn3Cc3ccccc3Cl)cc21` [Example 220, (2R)-2-([1-[(2-chlorophenyl)methyl]-5-(1-ethyl-1H-indazol-6-yl)-1H-pyrazol-3-yl]methoxy)-2-methylbutanoic acid], in series [1], the “Rat F” value is reported as 29%, the half-life is 2.8 h and the Vd stood at 0.68 L/kg. Also, the “Mechanical Allodynia (Von Frey)” value in [2] amounted to 3 mg/kg. The half-life at 2 µM in [3] (setting [8]) was found to be 4.87 h. Further, the “Rat microsome % 60 min” value in [3] came to 86%. In addition, on MCT4, inhibition was half-maximal at 0.54 nM (IC50). In series [4], the “Mouse F” value came to 100%, the half-life is 6.9 h and the Vd came to 1.7 L/kg. Inhibition on MCT1 was half-maximal at 33000 nM (IC50). In [5], the half-life at 2 µM was 17.3 h and the “Mouse microsome % 60 min” value came to 102%. Further, the “Human microsome t1/2, min” value in series [6] (setting [9]) is reported as “∞”. Besides, the “Human microsome % 60 min” value in [6] came out at 105%. The “Difference in Weight Bearing” value in series [7] amounted to 3 mg/kg.
